Assay results published in patent US8703970B2, “Compounds having photochemically removable protecting groups based on an electrocyclic reaction between a chromophore attached via an anilide group to a benzothiophene ring” (Marquette University, priority 2012, dated 2014).
Where two headings read alike, the source gives them in different places.

Assay: Solubility observations on photoproducts
Assay type: physicochemical
Experimental: Photoproduct 26 was identified by ^1H NMR spectroscopy and elemental analysis. […] Regioisomer 28 would have shown only four vicinal couplings in the COSY spectrum. […] The compound was obtainable only as a powder, despite repeated attempts to obtain crystals for structure determination using X-ray diffraction.
Similarly, preparative photolysis of […] acid 9 (LG^−=Cl^−) in N2 saturated 75% H2O in CH3CN containing 100 mM phosphate buffer (pH 7) gave the single regioisomeric photoproduct 27 in 98% yield by NMR integration, as above for 8 (LG^−=Cl^−). The regiospecificity was again established by 600 MHz ^1H NMR COSY. […] Photolysis of acid 9 (LG^−=PhS^−, HS^−, PhCH2S^−) under the same conditions as 8 (LG^−=Cl^−) also gave photoproduct 27 in 98-100% yields upon expulsion of these thiolate leaving groups. For acid 9 (LG^−=PhCH2S^−) the released benzyl thiol was quantified in photolyses of 4.5×10^−3 M solutions of 35% D2O in CD3CN containing phosphate buffer (as above) contained in NMR tubes. Yields were 96% thiol and 99% of 27 at 100% conversion of reactant by ^1H NMR spectroscopy. Very similar results were found when DMSO-d6 was the photolysis solvent.
A 0.010 M solution of 8 (LG^−=Cl^−) in N2 saturated 17% H2O in CH3CN containing 100 mM phosphate buffer at pH 7 was irradiated with a 450 W Hanovia medium pressure mercury lamp with a Pyrex filter for 90 min. […]

solubility (in DMSO-d6, 13C-NMR could not be obtained)	solubility	Structure (SMILES)
low solubility		Cn1c(=O)c2sc3ccccc3c2c2cc3sc4ccccc4c(=O)c3cc21 [compound 31]
	low solubility	COC(=O)c1ccc2c(c1)sc1c(=O)n(C)c3cc4c(=O)c5cc(Br)ccc5sc4cc3c12 [compound 32, 6-methylcarboxylate-[1]benzothiopheno[2,3-c]benzo[a]anthracene-10-bromo-4-methyl-4H-7-thia-4-aza-3,12-dione]
